This is an account of results in patent US20050118603A1, “Target detection system having a conformationally sensitive probe comprising a nucleic acid based signal transducer” (Ahram Biosystems Inc., priority 2002, published 2005).

{Fluorescein} = fluorescein attached by a linker

Series [1] has as its target T1, streptavidin (Streptomyces avidinii, UniProt P22629).
T1 construct: purchased Pierce (IL, USA)
Briefly: Inhibition of binding of the receptor agent to the probe ligand using unimolecular probe UP6-23B (Example 18). The following applies: 12.5 pmol streptavidin, 50 pmol probe; background subtracted. As to the method:
Assay solutions for the inhibition test were prepared as follows. In each well of a 96 well PCR plate, 50 μL of 10 mM Tris, pH 8.5, 50 mM KCl, 2.5 mM MgCl2 containing 12.5 pmol of streptavidin and different amount of an inhibitor (biotin) was introduced and incubated for about 30 min at room temperature. About 50 pmol of the probe UP6-23B (SEQ ID NO: 141) was then added to each well and incubated for about 30 min at 60° C. before the fluorescence measurement.

Series [2] deals with T2, PKC probe UP10-23PKC (SEQ ID NO: 165), peptide KRTLRRC conjugated to the UP10-23A pre-probe.
T2 sequence: KRTLRRC

For series [3], the target named is T1, streptavidin. Put plainly: Receptor-binding assay, temperature dependence of fluorescence signal of unimolecular probes (Examples 11-17). The settings on record: for relative increase of the fluorescence intensity (¼ molar equivalent of streptavidin divided by that without streptavidin): 25° C., 50 pmol probe. As for the experimental part:
In order to perform receptor-binding assay, about 50 pmol of each unimolecular probe was mixed with 0, ⅛, and ¼ molar equivalent of streptavidin (0, 6.25, 12.5 pmol, respectively) in 50 μL of pH 8.5 10 mM Tris containing 50 mM KCl, […] well of a 96 well PCR plate (Bio-Rad, CA, USA). Note that ¼ molar equivalent of streptavidine corresponds to 1 molar equivalent of the biotin binding site in streptavidin with respect to the amount of the unmolecular probe used because streptavidin has 4 biotin binding sites. The assay solutions were then incubated for about 30 min at 60° C. The temperature dependence of the fluorescence signal from each well was measured with an iCycler iQ real time PCR machine purchased from Bio-Rad (CA, USA) using the melting profile protocol.
The assay solutions for the unimolecular probes (50 pmol of each probe with 0, ⅛, and ¼ molar equivalent of streptavidin) were prepared in a 96 well PCR plates by the same procedure described in Example 11. As in Example 11, the temperature dependence of the fluorescence signal was measured with an iCycler iQ real time PCR machine.
Again, the assay solutions for the above unimolecular probes (50 pmol of each probe with 0, ⅛, and ¼ molar equivalent of streptavidin) were prepared in a 96 well PCR plates by the same procedure described in Example 11, and the temperature dependence of the fluorescence signal was measured with an iCycler iQ real time PCR machine.
Again, the assay solutions for the above two unimolecular probes (50 pmol of each probe with 0 and ¼ molar equivalent of streptavidin) were prepared in a 96 well PCR plates by the same procedure described in Example 11, and the temperature dependence of the fluorescence signal was measured with an iCycler iQ real time PCR machine.
Assay solutions for the above unimolecular probe (50 pmol of each probe with 0 and ¼ molar equivalent of streptavidin) were prepared in a 96 well PCR plates by the same procedure described in Example 11, and the temperature dependence of the fluorescence signal was measured.
Assay solutions for the above unimolecular probe (50 pmol of each probe with 0 and ¼ molar equivalent of streptavidin with total volume including the buffer solution being 50 μL) were prepared in a 96 well PCR plates using the following four buffer solutions: pH 6.0 10 mM MES containing 50 mM KCl, 2.5 mM MgCl2; pH 7.0 10 mM Tris containing 50 mM KCl, 2.5 mM MgCl2; pH 8.0 10 mM Tris containing 50 mM KCl, 2.5 mM MgCl2; and pH 9.0 10 mM Tris containing 50 mM KCl, […] The temperature dependence of the fluorescence signal from each well was measured with an iCycler iQ real time PCR machine.

Series [4] addresses T1, streptavidin. Briefly: Unimolecular probe assay for streptavidin analysed by non-denaturing electrophoresis (Example 3). It is filed as binding. The settings on record: in the presence of streptavidin; incubated in ice for an hour. The source says:
Two unimolecular affinity probes, UP1-34B (SEQ ID NO: 127) and UP2-6B/36B (SEQ ID NO: 128), having biotin as a probe ligand were used to detect a receptor agent, streptavidin (SA). The unimolecular affinity probe UP1 is depicted schematically in FIG. 18. UP1 has a biotin-coupled thymidine at the 34th position, and UP2 has two biotin-coupled thyrnidines at the 6th and 36th positions (see FIG. 23A for the structure of the biotin-coupled thymidine). Each unimolecular probe has an interactive label pair consisting of a fluorescer, fluorescein, and a quencher, DABCYL (4-(4′-dimethylaminophenylazo)benzoic acid), which are covalently linked to the 5′ and the 3′ terminus by a linker, respectively. The structures of the fluorescein and DABCYL with the linker are shown in FIGS. 23B and 23D, respectively. […] This causes decrease of the fluorescence intensity from the probe compared to the dissociated conformation in which the stem duplex is dissociated and thus the fluorescer moiety is located distal from the quencher moiety. […]
Assay solutions were prepared according to the compositions summarized in Table 6, incubated in ice for an hour, and analyzed by electrophoresis. […] Dissociation of the stem duplexes due to the destabilization effect caused by the binding of the receptor agent is manifested by the increased fluorescence. […]

Series [5] deals with T1, streptavidin. Put plainly: Immobilized trimolecular affinity probe assay for detecting streptavidin (Example 9). Type of series: binding. The settings on record: upon addition of streptavidin, depending on amount added; CM3* fluorescence at 535 nm. An excerpt: Two immobilized trimolecular affinity probes having a probe ligand (biotin) conjugated to the first complement sequence were used to detect streptavidin. One of the trimolecular probes used in this example is depicted schematically in FIG. 15. The first probe consists of an object oligonucleotide OB1-1B (SEQ ID NO: 135) comprising first and second object sequences, a first complement sequence CM2-4B (SEQ ID NO: 136) having a probe ligand, and a second complement sequence CM3* (SEQ ID NO: 131). The second probe consists of an object oligonucleotide OB1-1B (SEQ ID NO: 135), a first complement sequence CM1-4B (SEQ ID NO: 133) having a probe ligand, and a second complement sequence CM3* (SEQ ID NO: 131). The object oligonucleotide OB1-1B has a biotin covalently linked to the first nucleotide, adenosine in the 5′ end that is used to immobilize the object sequence (see FIG. 23E for the structure of the biotin-coupled abasic nucleotide). The second complement oligonucleotide CM3* has fluorescein as a fluorescent label at the 5′ terminal.
The object oligonucleotide having a biotin residue in the 5′ terminal was immobilized to microwell plate wells coated with streptavidin. […] Fluorescence from the second complement oligonucleotide CM3* from each well was then measured at 535 nm using a microwell plate reader (GENios, TECAN, USA).

[6] abbreviates: pH 6.0, 7.0, 8.0, 9.0, without and with streptavidin.

T1 sequence (P22629 25-183): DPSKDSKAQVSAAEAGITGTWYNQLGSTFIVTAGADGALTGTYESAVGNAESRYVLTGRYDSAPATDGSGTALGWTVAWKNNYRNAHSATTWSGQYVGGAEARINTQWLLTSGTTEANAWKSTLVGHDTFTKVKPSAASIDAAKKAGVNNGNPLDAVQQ

Regarding `O=C(O)CCCC[C@@H]1SC[C@@H]2NC(=O)N[C@@H]21` [biotin], the “fluorescence intensity of UP6-23B as a function of inhibitor concentration” value in series [1] is recorded as “decreases with increasing inhibitor concentration”.

In the case of PKC (Protein Kinase C), the “fluorescence signal of the PKC probe after the kinase reaction and addition of anti-phosphothreonine antibody” value in series [2] is listed as “a substantial increase of the fulorescence signal with respect to that measured with un-reacted PKC probe is observed in the absence of the inhibitor”.

Consider “UP1-34B: unimolecular affinity probe (SEQ ID NO: 127), biotin-thymidine at 34th position, fluorescein/DABCYL, 6 bp stem (GCAGCCTAGGAAACACCAAAGATGATATTTGGCTGC; listed as DNA, chemistry not fully specified)”, for which the “melting temperature higher than that of the probe UP14-21B” value in series [3] (6 bp stem duplex vs 4 bp stem duplex) was “about 20 °C”. Moreover, the “fluorescence in the high mass region of the gel” value in series [4] is listed as “strongly enhanced fluorescence”. Consider “UP2-6B/36B: unimolecular affinity probe (SEQ ID NO: 128), biotin-thymidines at 6th and 36th positions, fluorescein/DABCYL, 7 bp stem (GCAGCTCTAGGAAACACCAAAGATGATATTTGAGCTGC; listed as DNA, chemistry not fully specified)”, for which the “fluorescence in the high mass region of the gel” value in series [4] was “strongly enhanced fluorescence”. As for “UP6-23B: unimolecular probe (SEQ ID NO: 141), 15 nt loop, 5 bp stem, biotin, fluorescein/DABCYL (GCAGGATACTCATTACCATACCTGC; biotin, fluorescein and DABCYL, positions not given here, hairpin)”, the melting temperature result in series [3] (absence of the receptor agent, 0 mM MgCl2) was “about 38 °C”; in series [3] (absence of the receptor agent, 5 mM MgCl2), “about 58 °C”; in series [3] (presence of the receptor agent (¼ molar equivalent of streptavidin), 0 mM MgCl2) it was “about 33 °C”; in series [3] (presence of the receptor agent (¼ molar equivalent of streptavidin), 5 mM MgCl2), “about 45 °C”. Besides, the “fluorescence intensity as a function of pH” value in series [3] (setting [6]) is recorded as “increases dramatically depending on the pH”. In addition, the “melting temperature as a function of pH” value in series [3] (setting [6]) was “increases with pH”.

On to “UP10-13B: unimolecular probe (SEQ ID NO: 155), biotin in loop, 8th nucleotide from both ends of the loop region (GCAGCATCCTCATTACCCTAGCTGC; biotin in loop, hairpin stem-loop, further chemistry not given here)”, for which the “response of the fluorescence signal of the unimolecular probe to addition of the receptor agent (conjugation position dependence)” value in series [3] (¼ molar equivalent of streptavidin vs. none) is reported as “did not work properly as a unimolecular probe”. With “UP14-21B: unimolecular probe (SEQ ID NO: 149), 4 bp stem duplex, biotin, fluorescein/DABCYL (GCAGATACTCATTACCATACTGC; biotin, fluorescein and DABCYL, positions not given here, hairpin)”, in series [3] (upon addition of streptavidin), the “relative increase of the fluorescence signal, compared between the 4 bp and 6 bp stem probes” value was “larger”. For the molecule “UP15-23B: unimolecular probe (SEQ ID NO: 150), stem and loop length as UP6-23B, different loop sequence with secondary 4 bp stem conformer (GCAGGATACTGCTTACCATACCTGC; biotin label, position not given here, hairpin)”, the “relative increase of the fluorescence intensity (¼ molar equivalent of streptavidin divided by that without streptavidin)” value in series [3] was “about 3”. Consider “UP16-23B: unimolecular probe (SEQ ID NO: 151), stem and loop length as UP6-23B, different loop sequence with secondary 4 bp stem conformer (GCAGGACTCTCATTACACTGCCTGC; listed as DNA, chemistry not fully specified)”, for which the “relative increase of the fluorescence intensity (¼ molar equivalent of streptavidin divided by that without streptavidin)” value in series [3] is on record as “about 1.5”.

B1: second probe: immobilized trimolecular affinity probe of Example 9: OB1-1B, CM1-4B and CM3* (nucleic acid)
chain 1: ATGGAAGTATATGGAAGTATATGGAAGTATTCGTGGGGTTTTGCAGTCGTAG
chain 2: GACTGCAAAACCCC
chain 3: CTACGACTGCAA
modifications: chain 1: DNA, backbone not given here; chain 2: DNA, backbone not given here; chain 3: DNA, 5' {Fluorescein}, backbone not given here; OB1-1B biotin at 5' first nucleotide, CM1-4B biotin ligand, further chemistry not fully specified
Turning to B1, the “increase of fluorescence intensity, normalized to intensity in the absence of the receptor agent” value in series [5] was 2-3.5 fold.
